Experimental data published in patent US4990510A, “Substituted indoloquinoxalines” (Leif Lundblad, priority 1986, dated 1991).
≈ marks a conversion by molar mass, not a printed value. Structures can show the parent of a compound that is named as a salt.

How the values were obtained:
[1] = Acute toxicity (LD50) in mice; format: in vivo; settings: for LD50: mouse, in vivo
Description: (§1) Experiments with mice have also been carried out. LD50 intraperitoneally is of the order 1000 mg/kg and about 100 mg/kg intravenously. […] were inocculated with 5 millions mouse ascites tumor cells intraperitoneally. 80 mg/kg of B219 were given daily for ten days. 2 mice died 22 days after treatment, 8 mice survived the whole test period (3 months). All controls were then dead. In two experiments with ascites lymphoma cells in mice a survival time of 50.9 days was obtained in the first experiment and 45.6 days in the second. The survival time for the controls , was 16.2 and 16.1 days respectively.

[2] = test system: Herpes simplex type 1 and 2; experiment: Herpes simplex virus tissue culture test (human amnion AV3-cells), cytopathogenic effect; format: cell-based, Herpes simplex virus type 1 and 2; settings: for EC50: Human alphaherpesvirus 1, Table 1, read-out: Herpes Simplex tissue culture OL50 (concentration for 50% survival); for Herpes Simplex tissue culture OL50 (concentration for 50% survival): Table 1
Description: (§2) The virus strains were obtained from the National Bacteriological Laboratory, Stockholm. Herpes simplex type 1 and 2 were passaged intracerebrally in mice. For mouse experiments male mice 2-3 weeks old were used. Intracerebral infection was carried out by introducing the syringe 3 mm above the eye to a depth of approximately 3 mm. 0.03 ml virus suspension was injected above one eye and the substance above the other. Control groups obtained on one hand injection with physiological saline and on the other hand virus suspension.
Tissue culture experiments took place with human amnion AV3-cells. The cells were grown in glass-tubes (12×100 mm) in Eagles medium containing Earles salt solution and 10% of calf-serum. Tubes with a full-grown homogenous layer of cells were infected with virus (0.15 ml) and the virus was allowed to adsorb to cells for 1 hour at 37° C. The tubes were treated with substance dissolved in medium 24 hours and 0 hour before infection. Medium containing test-substance was changed every second day throughout the experiment. In each test a series of concentrations of the test-substance was investigated simultaneously so that about 50% reduction in cytopatogenic effect could be established (ED50).

HeHrl-cells = experiment: Growth/killing of Burkitt lymphoma HeHrl-cells (HeHr); format: cell-based; settings: FIGS. 1 and 2
Description: (§3) Burkitt lymphoma cells were obtained from professor Georg Klein, Karolinska Institutet. HeHrl-cells contain Epstein-Barr virus antigen on the surface of the cells while Raji cells contain the same antigen in the nucleus. The cells were grown in RPMI 1640 medium in the presence of 15% of fetal calf-serum, 2mM glutamine, 200 mg/1 penicillin and 200 mg/1 of streptomycine. L 1210 cells (mouse leukemia) were obtained from Dr. Miklos Degre, Rikshospitalet, Oslo. These cells were grown in RPMI 1640 medium with 10% horse serum.

Raji cells = experiment: Growth/killing of Burkitt lymphoma Raji-cells; format: cell-based; settings: FIGS. 1 and 3
Description: as §3

osteogenic sarcoma cells = experiment: Growth inhibition of osteogenic sarcoma cells; format: cell-based; settings: after 6 days test with 1 mg/1
Description: (§4) Also osteogenic sarcoma cells and giant tumor cells (strain T4) were inhibited to 90% in their growth after 6 days test with 1 mg/1.

[3] = test system: giant tumor cells (strain T4); experiment: Growth inhibition of giant tumor cells (strain T4); format: cell-based; settings: after 6 days test with 1 mg/1
Description: as §4

[4] = test system: herpes simplex virus type 1; experiment: Virus mixed with B196, with or without dialysis, injected intracerebrally into mice (FIG. 4); format: in vivo, herpes simplex virus type 1 in mice
Description: as §2
In the experiments shown in FIG. 4 various concentrations of B-196 were mixed with herpes simplex virus type 1 and injected intracerebrally into mice immediately at or after dialysis, at 4° C. over night. No survivors were recorded in control groups.

[5] = test system: herpes simplex virus type 1; experiment: Virus inactivation after incubation with B196, infectivity by intracerebral injection in mice (FIG. 5); format: in vivo, herpes simplex virus type 1 in mice; settings: 75 and 150 μg/ml, 4° C.
Description: In the experiments shown in FIG. 5 two concentrations of B-196 (75 and 150 μg/ml) were incubated for different times at 4° C. with herpes simplex virus type 1 and the infectivity of the mixtures were determined by intracerebral injection in mice Control virus was incubated at 4° C. for the same period of time. No survivors were registered in these groups.

[6] = test system: mouse ascites tumor cells; experiment: Mouse ascites tumor survival experiment; format: in vivo; settings: 80 mg/kg daily for ten days
Description: as §1

ascites lymphoma cells = experiment: Ascites lymphoma survival experiments in mice; format: in vivo
Description: as §1

herpes virus = settings: literature; cited from earlier work

Cc1ccc2c(c1)c1nc3ccccc3nc1n2CCN(C)C [Example 4, 9-methyl-6-(N,N-dimethylaminoethyl)-6H-indolo(2,3-b)quinoxaline]
LD50 ([1]; Table 1): > 200 mg/kg
EC50 [2]: 1 µg/mL (≈ 3.29 µM)

CN(C)CCn1c2ccc(Cl)cc2c2nc3ccccc3nc21.Cl [Example 5, 9-chloro-6-(N,N-dimethylaminoethyl)-6H-indolo(2,3-b)-quinoxaline-HCl]
LD50 mouse ([1]; Table 1, listed as 9): > 250 mg/kg
LD50 ([1]; Table 1): 180 mg/kg
EC50 [2]: 1 µg/mL

Cc1cc2nc3c4cc(Br)ccc4n(CCN(C)C)c3nc2cc1C [Example 6, 2,3-dimethyl-9-bromo-6-(N,N-dimethylaminoethyl)-6H-indolo-(2,3-b)quinoxalin]
LD50 ([1]; Table 1): > 250 mg/kg
EC50 [2]: < 0.5 µg/mL

Cc1ccc2c(c1)c1nc3ccccc3nc1n2CCN(C)C [Example 8]
LD50 mouse ([1]; Table 1): > 200 mg/kg
Herpes Simplex tissue culture OL50 (concentration for 50% survival) [2]: 1 µg/mL

Cc1ccc2c(c1)c1nc3ccccc3nc1n2CCN(C)C [Example 10, 9-methyl-6-(N,N-dimethylaminoethyl)-6H-indolo(2,3-b)-quinoxaline-ICl]
LD50 mouse ([1]; Table 1): 220 mg/kg
Herpes Simplex tissue culture OL50 (concentration for 50% survival) [2]: 0.5 µg/mL

CN(C)CCn1c2ccc(Br)cc2c2nc3ccccc3nc21 [Example B196, 9-bromo-6(N,N-dimethylaminoethyl)-6H-indolo(2,3-b)-quinoxaline . HCl]
sensitivity / killing of HeHrl-cells (HeHrl-cells): rapidly killed
sensitivity / killing of Raji-cells (Raji cells): rapidly killed
inhibition of growth, osteogenic sarcoma cells (osteogenic sarcoma cells): 90%
inhibition of growth, giant tumor cells (strain T4) [3]: 90%
survival rate ([4]; virus mixed with B196 before injection, increases from 0): 100%
effect on survival rate after dialysis ([4]; virus-substance mixture subjected to dialysis before injection): almost equally pronounced
inactivation of HSV1-virus vs. time [5]: virus slowly is inactivated

Cc1cc2nc3c4cc(Br)ccc4n(CCN(C)C)c3nc2cc1C [Example B219]
mice died 22 days after treatment ([6]; 5 millions ascites tumor cells intraperitoneally): 2 mice
mice survived the whole test period ([6]; 3 months, all controls dead): 8 mice
survival time, first experiment (ascites lymphoma cells; first experiment, controls 16.2 days): 50.9 days
survival time, second experiment (ascites lymphoma cells; second experiment, controls 16.1 days): 45.6 days

O=C(O)CP(=O)(O)O [phosphonoacetic acid]
activity against herpes virus (herpes virus): active against herpes virus

O=C(O)P(=O)(O)O [phosphonoformic acid]
activity against herpes virus (herpes virus): active against herpes virus
